For orientation: IC50 means the midpoint of a concentration-inhibition curve. Higher therefore signals weaker potency.

For one assay, the system named is MDA-MB-468. The assay is described as follows: Growth inhibition of human MDA-MB-468 cells overexpressing FAS gene after 72 hrs by MTT assay. The following applies: MDA-MB-468, 72 h. It counts as functional, cell-based. (Formazan colour is commonly taken as a measure of viable cells.)
For another assay, the system named is NCI-H1975. Kind of assay: Growth inhibition of human NCI-H1975 cells at 0.041 to 10 ug/ml after 72 hrs by MTT assay. The assay is classed as functional, cell-based.
The subject of a further assay is SW480. The assay is described as follows: Growth inhibition of human SW480 cells overexpressing FAS gene after 72 hrs by MTT assay. It counts as functional, cell-based. The note with it: SW480, 72 h.
In a further assay the target is Fatty acid synthase (Gallus gallus, UniProt P12276). The assay is described as follows: Inhibition of chicken FAS by spectrophotometric analysis.
Fatty acid synthase, sequence (P12276 whole entry): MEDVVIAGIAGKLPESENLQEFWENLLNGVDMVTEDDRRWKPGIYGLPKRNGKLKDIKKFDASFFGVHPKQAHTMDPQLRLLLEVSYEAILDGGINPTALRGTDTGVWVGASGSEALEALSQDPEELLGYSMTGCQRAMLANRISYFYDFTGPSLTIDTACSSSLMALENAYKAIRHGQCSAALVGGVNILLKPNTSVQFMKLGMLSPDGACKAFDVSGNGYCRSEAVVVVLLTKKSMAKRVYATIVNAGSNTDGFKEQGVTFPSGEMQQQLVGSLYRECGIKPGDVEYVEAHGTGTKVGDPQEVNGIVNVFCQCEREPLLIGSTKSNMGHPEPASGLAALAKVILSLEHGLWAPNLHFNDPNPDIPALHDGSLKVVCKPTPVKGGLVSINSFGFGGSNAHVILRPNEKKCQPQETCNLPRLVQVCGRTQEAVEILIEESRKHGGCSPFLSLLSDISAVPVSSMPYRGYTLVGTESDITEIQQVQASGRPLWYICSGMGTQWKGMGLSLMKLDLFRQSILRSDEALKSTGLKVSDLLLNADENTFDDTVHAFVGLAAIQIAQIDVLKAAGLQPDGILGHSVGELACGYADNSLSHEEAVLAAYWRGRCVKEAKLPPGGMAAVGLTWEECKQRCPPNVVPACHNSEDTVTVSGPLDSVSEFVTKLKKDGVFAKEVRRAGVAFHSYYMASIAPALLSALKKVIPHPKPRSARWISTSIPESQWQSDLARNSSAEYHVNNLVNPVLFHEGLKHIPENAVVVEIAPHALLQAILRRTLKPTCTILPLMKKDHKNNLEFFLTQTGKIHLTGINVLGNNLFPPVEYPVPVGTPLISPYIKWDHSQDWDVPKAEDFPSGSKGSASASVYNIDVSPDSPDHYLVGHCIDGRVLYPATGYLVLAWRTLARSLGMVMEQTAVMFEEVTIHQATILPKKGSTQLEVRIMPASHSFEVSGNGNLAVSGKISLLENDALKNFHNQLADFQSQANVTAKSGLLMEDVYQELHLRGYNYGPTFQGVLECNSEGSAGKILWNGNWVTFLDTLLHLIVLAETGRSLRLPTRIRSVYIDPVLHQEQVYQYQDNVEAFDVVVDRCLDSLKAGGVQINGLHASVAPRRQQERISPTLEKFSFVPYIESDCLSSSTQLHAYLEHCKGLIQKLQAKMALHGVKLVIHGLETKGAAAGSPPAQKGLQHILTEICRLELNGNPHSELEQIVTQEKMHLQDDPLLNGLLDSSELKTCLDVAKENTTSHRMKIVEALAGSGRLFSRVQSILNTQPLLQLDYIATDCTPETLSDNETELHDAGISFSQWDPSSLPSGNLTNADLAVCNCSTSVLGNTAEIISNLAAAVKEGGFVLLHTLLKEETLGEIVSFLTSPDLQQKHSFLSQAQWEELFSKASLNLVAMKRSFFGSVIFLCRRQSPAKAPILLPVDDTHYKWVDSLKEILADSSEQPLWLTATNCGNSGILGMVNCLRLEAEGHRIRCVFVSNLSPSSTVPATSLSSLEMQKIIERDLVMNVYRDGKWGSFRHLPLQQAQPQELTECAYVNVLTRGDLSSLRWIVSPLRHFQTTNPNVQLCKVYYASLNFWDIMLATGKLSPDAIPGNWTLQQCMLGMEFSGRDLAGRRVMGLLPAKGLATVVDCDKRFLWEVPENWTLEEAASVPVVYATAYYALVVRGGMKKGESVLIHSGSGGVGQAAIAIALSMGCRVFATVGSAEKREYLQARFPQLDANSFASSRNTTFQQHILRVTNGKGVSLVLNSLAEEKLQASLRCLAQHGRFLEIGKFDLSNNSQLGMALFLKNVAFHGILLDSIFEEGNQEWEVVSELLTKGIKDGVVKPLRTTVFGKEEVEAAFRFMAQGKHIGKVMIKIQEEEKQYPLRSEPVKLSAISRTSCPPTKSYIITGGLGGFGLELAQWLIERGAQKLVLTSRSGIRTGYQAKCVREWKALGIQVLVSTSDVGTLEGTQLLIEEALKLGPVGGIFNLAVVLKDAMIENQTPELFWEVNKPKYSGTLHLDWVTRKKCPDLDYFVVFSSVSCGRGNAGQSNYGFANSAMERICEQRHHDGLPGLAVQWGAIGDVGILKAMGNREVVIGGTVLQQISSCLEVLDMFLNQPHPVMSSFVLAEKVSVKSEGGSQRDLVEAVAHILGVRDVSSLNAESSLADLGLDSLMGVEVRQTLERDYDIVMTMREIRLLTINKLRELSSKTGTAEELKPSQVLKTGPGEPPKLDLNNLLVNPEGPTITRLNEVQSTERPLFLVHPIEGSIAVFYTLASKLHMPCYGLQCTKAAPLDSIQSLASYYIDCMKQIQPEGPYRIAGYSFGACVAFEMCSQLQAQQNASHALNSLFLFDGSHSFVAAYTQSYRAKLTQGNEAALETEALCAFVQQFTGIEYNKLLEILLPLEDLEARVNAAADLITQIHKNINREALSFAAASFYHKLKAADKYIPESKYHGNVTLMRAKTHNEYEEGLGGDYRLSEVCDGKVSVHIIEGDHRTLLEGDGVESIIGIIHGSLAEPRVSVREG

Structures are written as SMILES. The source made the active and inactive calls. The calls are words filed in the database; no cut-off is given here.

Turning to `CC1=C(C(=O)Nc2ccccn2)C(c2ccc(Br)cc2)NC(S)=N1` (configuration not stated), in the assay on MDA-MB-468, 8.4 µM corresponded to half-maximal inhibition (IC50). In addition, the inhibition entry in the assay on NCI-H1975 was “inactive”.

Turning to `O=[N+]([O-])c1cccc(-c2csc(N/N=C\c3ccccn3)n2)c1`, the IC50 in the assay with MDA-MB-468 worked out at 8.3 µM; in the assay with SW480 it was 1.5 µM; on Fatty acid synthase it was 12.7 µM. Further, the inhibition entry in the assay with NCI-H1975 is “inactive”.

On to `COc1cc(OC)c([C@H]2NC(=S)NC(C)=C2C(=O)Nc2ccccc2Cl)cc1OC`, for which, in the assay on SW480, 7.5 µM corresponded to half-maximal inhibition (IC50). Besides, the inhibition result in the assay on NCI-H1975 is “inactive”.

For the compound `CC1=NC2N=NNN2[C@@H](c2ccc(OCc3ccccc3)cc2)C1C(=O)Nc1ccccc1` (some centres not stated), the IC50 in the assay on MDA-MB-468 is 19.3 µM; in the assay on SW480 it was 11.1 µM. Further, in the assay on NCI-H1975, the inhibition result is “inactive”.

In the assay with SW480, `CCn1c(SCC(=O)Nc2cc(Cl)ccc2Cl)nnc1C(C)(C)NC(=O)c1cccc(C)c1` returned an IC50 of 14.7 µM. For the same compound, the inhibition entry in the assay with NCI-H1975 is “inactive”.

For the compound `CC1=C(C(=O)Nc2ccc(Cl)cc2)C(c2cc(Br)ccc2O)NC(=S)N1` (configuration not stated), 14.2 µM corresponded to half-maximal inhibition in the assay with SW480 (IC50). Besides, the inhibition entry in the assay with NCI-H1975 is “inactive”.

In turn, `CC1=C(C(=O)Nc2ccccc2)[C@@H](c2ccc(OCc3ccccc3)cc2)n2ncnc2N1` yielded an IC50 with SW480 of 19.9 µM. Further, the inhibition entry with NCI-H1975 is “inactive”.

The values above are taken from ChEMBL document CHEMBL1806412, “Discovery of novel fatty acid synthase (FAS) inhibitors based on the structure of ketoaceyl synthase (KS) domain” (Bioorg Med Chem Lett, 2011).
